Oligonucleotides are given in HELM: sugar(base)linkage, 5' to 3'; d 2'-deoxyribose, r ribose, m 2'-O-methylribose, p phosphate. ss, as = sense and antisense strand

From the OligoGym collection come the findings set out here.
Also: test concentration or dose not given here.

The series deals with UBE2N. Description: reporter assay of Huesken 2005. To be noted: siRNA.
Regarding “RNA1{r(C)p.r(C)p.r(C)p.r(A)p.r(A)p.r(G)p.r(C)p.r(C)p.r(A)p.r(U)p.r(A)p.r(G)p.r(A)p.r(A)p.r(A)p.r(C)p.r(A)p.r(G)p.r(C)p.d(T)p.d(T)}|RNA2{r(G)p.r(C)p.r(U)p.r(G)p.r(U)p.r(U)p.r(U)p.r(C)p.r(U)p.r(A)p.r(U)p.r(G)p.r(G)p.r(C)p.r(U)p.r(U)p.r(G)p.r(G)p.r(G)p.d(C)p.d(T)}$$$RNA1{StrandType:ss}|RNA2{StrandType:as}$”, the normalised inhibition (eCFP-eYFP dual reporter) came out at 60.2%.

“RNA1{r(C)p.r(C)p.r(U)p.r(A)p.r(A)p.r(U)p.r(G)p.r(U)p.r(A)p.r(G)p.r(A)p.r(C)p.r(A)p.r(A)p.r(G)p.r(U)p.r(U)p.r(G)p.r(G)p.d(T)p.d(T)}|RNA2{r(C)p.r(C)p.r(A)p.r(A)p.r(C)p.r(U)p.r(U)p.r(G)p.r(U)p.r(C)p.r(U)p.r(A)p.r(C)p.r(A)p.r(U)p.r(U)p.r(A)p.r(G)p.r(G)p.d(A)p.d(T)}$$$RNA1{StrandType:ss}|RNA2{StrandType:as}$” came in with a normalised inhibition (eCFP-eYFP dual reporter) of 69.4%.

On to “RNA1{r(C)p.r(G)p.r(A)p.r(A)p.r(G)p.r(C)p.r(C)p.r(C)p.r(A)p.r(A)p.r(G)p.r(C)p.r(C)p.r(A)p.r(U)p.r(A)p.r(G)p.r(A)p.r(A)p.d(T)p.d(T)}|RNA2{r(U)p.r(U)p.r(C)p.r(U)p.r(A)p.r(U)p.r(G)p.r(G)p.r(C)p.r(U)p.r(U)p.r(G)p.r(G)p.r(G)p.r(C)p.r(U)p.r(U)p.r(C)p.r(G)p.d(T)p.d(T)}$$$RNA1{StrandType:ss}|RNA2{StrandType:as}$”, for which the normalised inhibition (eCFP-eYFP dual reporter) is 84.1%.

For “RNA1{r(C)p.r(G)p.r(U)p.r(U)p.r(U)p.r(C)p.r(A)p.r(U)p.r(G)p.r(A)p.r(C)p.r(C)p.r(A)p.r(A)p.r(A)p.r(A)p.r(U)p.r(U)p.r(U)p.d(T)p.d(T)}|RNA2{r(A)p.r(A)p.r(A)p.r(U)p.r(U)p.r(U)p.r(U)p.r(G)p.r(G)p.r(U)p.r(C)p.r(A)p.r(U)p.r(G)p.r(A)p.r(A)p.r(A)p.r(C)p.r(G)p.d(T)p.d(A)}$$$RNA1{StrandType:ss}|RNA2{StrandType:as}$”, the normalised inhibition (eCFP-eYFP dual reporter) is 100%.

“RNA1{r(C)p.r(U)p.r(A)p.r(A)p.r(A)p.r(G)p.r(U)p.r(A)p.r(C)p.r(G)p.r(U)p.r(U)p.r(U)p.r(C)p.r(A)p.r(U)p.r(G)p.r(A)p.r(C)p.d(T)p.d(T)}|RNA2{r(G)p.r(U)p.r(C)p.r(A)p.r(U)p.r(G)p.r(A)p.r(A)p.r(A)p.r(C)p.r(G)p.r(U)p.r(A)p.r(C)p.r(U)p.r(U)p.r(U)p.r(A)p.r(G)p.d(G)p.d(G)}$$$RNA1{StrandType:ss}|RNA2{StrandType:as}$” registered a normalised inhibition (eCFP-eYFP dual reporter) of 79.5%.

The substance “RNA1{r(C)p.r(U)p.r(A)p.r(G)p.r(A)p.r(U)p.r(A)p.r(U)p.r(U)p.r(U)p.r(U)p.r(G)p.r(A)p.r(A)p.r(A)p.r(G)p.r(A)p.r(U)p.r(A)p.d(T)p.d(T)}|RNA2{r(U)p.r(A)p.r(U)p.r(C)p.r(U)p.r(U)p.r(U)p.r(C)p.r(A)p.r(A)p.r(A)p.r(A)p.r(U)p.r(A)p.r(U)p.r(C)p.r(U)p.r(A)p.r(G)p.d(A)p.d(C)}$$$RNA1{StrandType:ss}|RNA2{StrandType:as}$” showed a normalised inhibition (eCFP-eYFP dual reporter) of 85.6%.

In turn, “RNA1{r(C)p.r(U)p.r(C)p.r(C)p.r(C)p.r(A)p.r(A)p.r(U)p.r(C)p.r(C)p.r(A)p.r(G)p.r(A)p.r(U)p.r(G)p.r(A)p.r(U)p.r(C)p.r(C)p.d(T)p.d(T)}|RNA2{r(G)p.r(G)p.r(A)p.r(U)p.r(C)p.r(A)p.r(U)p.r(C)p.r(U)p.r(G)p.r(G)p.r(A)p.r(U)p.r(U)p.r(G)p.r(G)p.r(G)p.r(A)p.r(G)p.d(C)p.d(A)}$$$RNA1{StrandType:ss}|RNA2{StrandType:as}$” showed a normalised inhibition (eCFP-eYFP dual reporter) of 58.7%.

For “RNA1{r(C)p.r(U)p.r(U)p.r(G)p.r(A)p.r(A)p.r(C)p.r(U)p.r(A)p.r(U)p.r(U)p.r(C)p.r(C)p.r(U)p.r(U)p.r(C)p.r(C)p.r(A)p.r(G)p.d(T)p.d(T)}|RNA2{r(C)p.r(U)p.r(G)p.r(G)p.r(A)p.r(A)p.r(G)p.r(G)p.r(A)p.r(A)p.r(U)p.r(A)p.r(G)p.r(U)p.r(U)p.r(C)p.r(A)p.r(A)p.r(G)p.d(T)p.d(T)}$$$RNA1{StrandType:ss}|RNA2{StrandType:as}$”, the normalised inhibition (eCFP-eYFP dual reporter) turned out to be 84.8%.

Turning to “RNA1{r(C)p.r(U)p.r(U)p.r(U)p.r(G)p.r(A)p.r(G)p.r(G)p.r(G)p.r(A)p.r(G)p.r(G)p.r(G)p.r(A)p.r(C)p.r(U)p.r(U)p.r(U)p.r(U)p.d(T)p.d(T)}|RNA2{r(A)p.r(A)p.r(A)p.r(A)p.r(G)p.r(U)p.r(C)p.r(C)p.r(C)p.r(U)p.r(C)p.r(C)p.r(C)p.r(U)p.r(C)p.r(A)p.r(A)p.r(A)p.r(G)p.d(G)p.d(G)}$$$RNA1{StrandType:ss}|RNA2{StrandType:as}$”, the normalised inhibition (eCFP-eYFP dual reporter) came to 70.6%.

Substance “RNA1{r(G)p.r(A)p.r(A)p.r(A)p.r(C)p.r(A)p.r(G)p.r(C)p.r(U)p.r(A)p.r(G)p.r(A)p.r(G)p.r(C)p.r(A)p.r(U)p.r(G)p.r(G)p.r(A)p.d(T)p.d(T)}|RNA2{r(U)p.r(C)p.r(C)p.r(A)p.r(U)p.r(G)p.r(C)p.r(U)p.r(C)p.r(U)p.r(A)p.r(G)p.r(C)p.r(U)p.r(G)p.r(U)p.r(U)p.r(U)p.r(C)p.d(T)p.d(A)}$$$RNA1{StrandType:ss}|RNA2{StrandType:as}$” returned a normalised inhibition (eCFP-eYFP dual reporter) of 100%.

“RNA1{r(G)p.r(A)p.r(A)p.r(C)p.r(C)p.r(A)p.r(G)p.r(U)p.r(U)p.r(C)p.r(C)p.r(U)p.r(G)p.r(G)p.r(C)p.r(A)p.r(U)p.r(C)p.r(A)p.d(T)p.d(T)}|RNA2{r(U)p.r(G)p.r(A)p.r(U)p.r(G)p.r(C)p.r(C)p.r(A)p.r(G)p.r(G)p.r(A)p.r(A)p.r(C)p.r(U)p.r(G)p.r(G)p.r(U)p.r(U)p.r(C)p.d(T)p.d(G)}$$$RNA1{StrandType:ss}|RNA2{StrandType:as}$” returned a normalised inhibition (eCFP-eYFP dual reporter) of 36%.

Substance “RNA1{r(G)p.r(A)p.r(A)p.r(C)p.r(U)p.r(A)p.r(U)p.r(U)p.r(C)p.r(C)p.r(U)p.r(U)p.r(C)p.r(C)p.r(A)p.r(G)p.r(A)p.r(A)p.r(G)p.d(T)p.d(T)}|RNA2{r(C)p.r(U)p.r(U)p.r(C)p.r(U)p.r(G)p.r(G)p.r(A)p.r(A)p.r(G)p.r(G)p.r(A)p.r(A)p.r(U)p.r(A)p.r(G)p.r(U)p.r(U)p.r(C)p.d(A)p.d(A)}$$$RNA1{StrandType:ss}|RNA2{StrandType:as}$” yielded a normalised inhibition (eCFP-eYFP dual reporter) of 87.5%.

The substance “RNA1{r(G)p.r(A)p.r(A)p.r(G)p.r(A)p.r(C)p.r(C)p.r(A)p.r(A)p.r(C)p.r(G)p.r(A)p.r(A)p.r(G)p.r(C)p.r(C)p.r(C)p.r(A)p.r(A)p.d(T)p.d(T)}|RNA2{r(U)p.r(U)p.r(G)p.r(G)p.r(G)p.r(C)p.r(U)p.r(U)p.r(C)p.r(G)p.r(U)p.r(U)p.r(G)p.r(G)p.r(U)p.r(C)p.r(U)p.r(U)p.r(C)p.d(C)p.d(A)}$$$RNA1{StrandType:ss}|RNA2{StrandType:as}$” yielded a normalised inhibition (eCFP-eYFP dual reporter) of 85.4%.

As to “RNA1{r(G)p.r(A)p.r(A)p.r(G)p.r(C)p.r(C)p.r(C)p.r(A)p.r(A)p.r(G)p.r(C)p.r(C)p.r(A)p.r(U)p.r(A)p.r(G)p.r(A)p.r(A)p.r(A)p.d(T)p.d(T)}|RNA2{r(U)p.r(U)p.r(U)p.r(C)p.r(U)p.r(A)p.r(U)p.r(G)p.r(G)p.r(C)p.r(U)p.r(U)p.r(G)p.r(G)p.r(G)p.r(C)p.r(U)p.r(U)p.r(C)p.d(G)p.d(T)}$$$RNA1{StrandType:ss}|RNA2{StrandType:as}$”, the normalised inhibition (eCFP-eYFP dual reporter) turned out to be 90.3%.
